According to ChEMBL document CHEMBL3639104, “Ring-fused compound” (2015):

Biological target: T1, Solute carrier family 22 member 12 (Homo sapiens, UniProt Q96S37)
T1 sequence (Q96S37 whole entry): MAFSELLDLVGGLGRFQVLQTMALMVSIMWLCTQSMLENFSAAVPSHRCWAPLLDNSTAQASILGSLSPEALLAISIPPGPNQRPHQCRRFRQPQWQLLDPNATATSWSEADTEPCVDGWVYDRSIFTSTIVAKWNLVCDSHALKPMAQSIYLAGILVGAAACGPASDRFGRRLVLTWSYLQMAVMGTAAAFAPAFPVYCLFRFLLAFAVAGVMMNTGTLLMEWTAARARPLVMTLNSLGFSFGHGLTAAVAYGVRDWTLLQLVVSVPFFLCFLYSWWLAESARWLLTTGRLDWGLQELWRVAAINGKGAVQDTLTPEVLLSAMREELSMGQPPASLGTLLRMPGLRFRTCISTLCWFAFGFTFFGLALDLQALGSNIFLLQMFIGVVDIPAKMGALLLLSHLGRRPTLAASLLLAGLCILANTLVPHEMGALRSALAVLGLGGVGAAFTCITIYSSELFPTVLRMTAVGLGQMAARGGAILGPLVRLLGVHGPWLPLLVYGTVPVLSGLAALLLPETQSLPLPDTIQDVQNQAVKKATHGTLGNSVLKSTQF
Assay: Inhibition Assay: It was introduced human URAT1 full-length cDNA into an expression vector pcDNA5 / FRT / V5-His TOPO (registered trademark) (Invitrogen). The resulting expression plasmids, the liposome method using Lipofectamine LTX (Invitrogen), Chinese hamster ovary cells (hereinafter, referred to as CHO cells) was introduced into, by culturing in a selective medium containing hygromycin and human URAT1 stable The expression cell line we were prepared.Human URAT1 expression CHO cells, 10% fetal calf serum, D-MEM / F-12 containing the hygromycin (1: 1) using a mixed medium, 37 C, were cultured in the presence of 5% CO2. Cells were seeded in 96-well plates (Corning Incorporated) in 0.8x10E+5 cells / well, were subjected to the following uric acid transport inhibition test after 24 hours.After removal of the medium by aspiration, sodium gluconate of cells 125mM, potassium gluconate of 4.8mM, potassium dihydrogen phosphate of 1.2mM, magnesium sulfate of 1.2mM, calcium gluconate of 1.3mM, 5. washed once.
Type: cell-based

| IC50 [nM] | SMILES |
| --- | --- |
| 75 | Cc1nn(Cc2c(Cl)cccc2Cl)c2cc(C(C)C(=O)O)ccc12 (configuration not stated) |
| 98 | Cc1nn(Cc2c(Cl)cccc2Cl)c2cc(C(C)(C)C(=O)O)ccc12 |
